Results published in PubChem BioAssay (NCI).
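Method: 48-hour compound exposure of cells in 96-well plates, five concentrations, linear interpolation of endpoints. TGI: total growth inhibition.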

Assays:
Assay in all cases: NCI-60 cell line screen, 48 h
SN12C renal = system: SN12C renal
EKVX NSCLC = system: EKVX NSCLC
HT29 colon = system: HT29 colon
IGROV1 ovarian = system: IGROV1 ovarian
SK-MEL-28 melanoma = system: SK-MEL-28 melanoma
SR leukemia = system: SR leukemia
ACHN renal = system: ACHN renal
M14 melanoma = system: M14 melanoma

| SMILES | TGI (SN12C renal) [µM] | TGI (EKVX NSCLC) [µM] | TGI (HT29 colon) [µM] | TGI (IGROV1 ovarian) [µM] | TGI (SK-MEL-28 melanoma) [µM] | TGI (SR leukemia) [µM] | TGI (ACHN renal) [µM] | TGI (M14 melanoma) [µM] |
| --- | --- | --- | --- | --- | --- | --- | --- | --- |
| O=C(NNC1=NCCN1)c1ccco1 | > 100 | > 100 | > 100 | > 100 | > 100 | > 100 | > 100 | > 100 |
| COC(=O)c1ccc2c(O)c(O)ccc2c1 | 23 | 53.5 | 33.7 | 31.6 | 31.4 | 7.06 | 30.9 | 31 |
| COC(=O)C1CCC(=O)N1CN(C(C)=O)c1ccccc1 (configuration not stated) | > 100 | > 100 | > 100 | > 100 | > 100 | > 100 | > 100 | > 100 |
| O=[N+]([O-])/C=C1\COCc2cc3c(cc21)OCO3 | 47.2 | 74.7 | 67.2 | > 100 | 34.2 | 61.4 | 43.3 | 26.9 |
| O=C(c1ccccc1)c1ccc(COc2ccc(C(c3c(O)c4ccccc4oc3=O)c3c(O)c4ccccc4oc3=O)cc2)cc1 | > 100 | 40 | 34.9 | 28.5 | 47.4 | 63.9 | 38.1 | – |
| COc1nc(N)c(NC2OC(CO)C(O)C2O)c(=O)[nH]1 (configuration not stated) | > 100 | > 100 | > 100 | > 100 | > 100 | > 100 | > 100 | > 100 |
| CCC1(CC)CC(=NNS(=O)(=O)c2ccc(C)cc2)C1 | > 100 | > 100 | > 100 | > 100 | > 100 | – | > 100 | > 100 |
| CCCN(C(=O)c1c(Cl)nnc(Cl)c1C(=O)c1cc(Cl)nnc1Cl)c1cc(Cl)nnc1Cl | 26.1 | 27.3 | 43.4 | 21.2 | 28.1 | 20.3 | 25.5 | 40.8 |
| COC(=O)C1C(OC(=O)c2ccccc2)CC2CCC1N2C(N)=O (configuration not stated) | > 100 | > 100 | > 100 | > 100 | > 100 | > 100 | > 100 | > 100 |
| CN(/N=C(\C(=O)O)c1ccccc1)C1=NCCCN1 | > 100 | > 100 | > 100 | > 100 | > 100 | > 100 | > 100 | – |
| O=C(CN1CCNCCN(CC(=O)N2CCCCC2)CCNCC1)N1CCCCC1 | > 100 | > 100 | > 100 | > 100 | > 100 | > 100 | > 100 | > 100 |
| CCC(NC(C)c1ccccc1)C(O)c1ccc(OCc2ccccc2)c(OCc2ccccc2)c1 (configuration not stated) | 29.5 | 31.2 | 13 | 33.9 | 36 | 5.58 | 32.2 | 16.3 |
| CC1C(c2ccccc2)OP(=O)(OC(C#N)c2ccccc2)N1C (configuration not stated) | > 100 | > 100 | > 100 | > 100 | > 100 | > 100 | > 100 | > 100 |
| CC1(C)CS(=O)(=O)CC(C)(C)C(=N/N)/C1=N\N | > 100 | > 100 | > 100 | > 100 | > 100 | > 100 | > 100 | > 100 |
| CSc1nc(N)c(NC2OC(CO)C(O)C2O)c(=O)[nH]1 (configuration not stated) | > 100 | > 100 | > 100 | > 100 | > 100 | > 100 | – | > 100 |
| Fc1ccc2nc3n(c2c1)C(c1c(F)cccc1F)SC3 (configuration not stated) | > 100 | – | > 100 | > 100 | > 100 | 76.2 | > 100 | > 100 |
| COc1ccc(NC2Oc3cc4c(cc3C(c3cccc(OC)c3OC)C2C)OCO4)cc1 (configuration not stated) | > 100 | > 100 | > 100 | > 100 | 85.7 | 12 | > 100 | > 100 |
| O=c1cc(-c2cccc(Cl)c2)[nH]c2ncccc12 | 30.5 | > 100 | > 100 | > 58.9 | > 100 | > 100 | > 100 | > 100 |
| COc1cccc(/C=C2/Sc3scc(-c4ccccc4)[n+]3C2=O)c1O | 36.8 | 64.6 | 37.3 | 38.9 | 40.9 | – | 40.9 | > 100 |
| COC(=O)c1c2n(c3ccccc13)C[C@H]1OC(C)(C)O[C@@H]21 | > 100 | > 100 | > 100 | > 100 | > 100 | > 100 | > 100 | > 100 |
| COc1cc(OC)c(OC)cc1/C=N/N=C(\N)NO | > 100 | > 100 | > 100 | > 100 | > 100 | > 100 | > 100 | > 100 |
| NNC(=O)c1ccc(-n2nnc(C(=O)NN)c2C(=O)NN)cc1 | > 100 | > 100 | > 100 | – | > 100 | > 100 | > 100 | > 100 |
| COC(=O)C1CC2(CCC1=O)Cc1ccccc1C2=O (configuration not stated) | > 100 | > 100 | > 100 | > 100 | > 100 | > 100 | > 100 | > 100 |
| CN(C)CCNC(=O)c1cccc2c(NCC(=O)O)c3ccccc3nc12 | > 100 | 56.4 | 17.7 | > 100 | 52.6 | > 100 | > 100 | 52.2 |
| COc1cc2c(c(OC)c1OC)C(=O)[C@H](O)[C@H]2NC(N)=O | > 100 | > 100 | > 100 | > 100 | > 100 | – | > 100 | > 100 |
